Assay results reported in patent publication US8263606B2 (Xenon Pharmaceuticals Inc., priority 2008, dated 2012).

Experiments:
sodium channel = assay: Guanidine influx assay (14C-guanidine radiotracer flux, in vitro); assay type: cell-based, human or rat; settings: guanidine influx assay using a known cell line that expresses a sodium channel
In short: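 Sodium channel block is measured as reduced 14C-guanidine uptake in cells stably expressing human or rat channels, stimulated with aconitine. Potency is given as IC50 from a four-parameter curve.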

[1] = system: inactivated state of the channel of interest (sodium channel); assay: Electrophysiological assay (whole cell voltage clamp, in vitro); assay type: cell-based; settings: affinity for the inactivated state of the channel of interest
Experimental: Cells expressing the channel of interest are cultured in DMEM growth media (Gibco) with 0.5 mg/mL G418, +/−1% PSG, and 10% heat-inactivated fetal bovine serum at 37° C. and 5% CO2. For electrophysiological recordings, cells are plated on 10 mm dishes.
Whole cell recordings are examined by established methods of whole cell voltage clamp (Bean et al., op. cit.) using an Axopatch 200B amplifier and Clampex software (Axon Instruments, Union City, Calif.). All experiments are performed at ambient temperature. Electrodes are fire-polished to resistances of 2-4 Mohms Voltage errors and capacitance artifacts are minimized by series resistance compensation and capacitance compensation, respectively. Data are acquired at 40 kHz and filtered at 5 kHz. The external (bath) solution consists of: NaCl (140 mM), KCl (5 mM), CaCl2 (2 mM), MgCl2 (1 mM), HEPES (10 mM) at pH 7.4. The internal (pipette) solution consists of (in mM): NaCl (5), CaCl2 (0.1), MgCl2 (2), CsCl (10), CsF (120), HEPES (10), EGTA (10), at pH 7.2.
To estimate the steady-state affinity of compounds for the resting and inactivated state of the channel (Kr and Ki, respectively), 12.5 ms test pulses to depolarizing voltages from −60 to +90 mV from a holding potential of −120 m V is used to construct current-voltage relationships (I-V curves). A voltage near the peak of the IV-curve (−30 to 0 m V) is used as the test pulse throughout the remainder of the experiment. Steady-state inactivation (availability) curves are then constructed by measuring the current activated during a 8.75 ms test pulse following 1 second conditioning pulses to potentials ranging from −120 to −10 m V.
The steady-state voltage-dependence of binding of a compound to a sodium channel is determined by measuring the blockage of the ionic current at two holding potentials. Binding to rested-state channels is determined by using a holding potential of −120 mV, so that maximal availability is achieved. Binding to inactivated-state channels is evaluated at a holding potential such that only 10% of the channels are available to open. The membrane potential is held at this voltage for at least 10 seconds so that drug binding can equilibrate.
The apparent dissociation constant at each voltage is calculated with the equation:
[formula] where Kd is the dissociation constant (either Kr or Ki), and [Drug] is the concentration of the test compound.
The Example numbers provided in Table 3 correspond to the Examples herein: […]

CYP3A4 = CYP3A4 (Homo sapiens, UniProt P08684); assay: Cytochrome P450 (CYP450) Inhibition Assay, CYP3A4 (Vivid fluorescence, BOMCC substrate); settings: human, P450 Baculosomes (recombinant CYP3A4), probe BOMCC (Vivid substrate)
Sequence of CYP3A4 (P08684 whole entry): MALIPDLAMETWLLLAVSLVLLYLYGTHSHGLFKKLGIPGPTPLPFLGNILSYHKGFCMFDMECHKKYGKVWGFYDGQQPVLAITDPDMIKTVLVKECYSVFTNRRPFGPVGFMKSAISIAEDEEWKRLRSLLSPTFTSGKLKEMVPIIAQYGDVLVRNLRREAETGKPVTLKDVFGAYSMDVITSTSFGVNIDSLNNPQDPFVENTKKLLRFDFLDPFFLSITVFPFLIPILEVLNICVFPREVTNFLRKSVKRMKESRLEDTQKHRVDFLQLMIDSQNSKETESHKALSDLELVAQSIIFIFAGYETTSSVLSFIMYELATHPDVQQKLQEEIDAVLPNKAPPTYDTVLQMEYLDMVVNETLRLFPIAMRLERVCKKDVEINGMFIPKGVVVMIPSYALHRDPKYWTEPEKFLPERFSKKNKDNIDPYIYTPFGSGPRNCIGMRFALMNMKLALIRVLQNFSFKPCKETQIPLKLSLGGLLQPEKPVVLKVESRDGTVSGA

| Compound | IC50 (sodium channel) [nM] | Ki [1] [nM] | inhibition at 10 µM (CYP3A4) [%] | IC50 (sodium channel; activity level class) [nM] |
| --- | --- | --- | --- | --- |
| O=C1N(C[C@H]2CCCO2)c2cccc(-c3ccc(Oc4ccccc4)cc3)c2C12COc1cc3c(cc12)CCO3 (stereo partly drawn) [Example 16.6, 4′-(4-phenoxyphenyl)-1′-[(2R)-tetrahydrofuran-2-ylmethyl]-5,6-dihydrospiro[benzo[1,2-b:5,4-b′]difuran-3,3′-indol]-2′(1′H)-one] | 100 to 1000 | < 300 | < 50 |  |
| COc1ccc(-c2cccc3c2C2(COc4cc5c(cc42)CCO5)C(=O)N3C[C@H]2CCCO2)cc1 (stereo partly drawn) [Example 16.9, 4′-(4-methoxyphenyl)-1′-[(2R)-tetrahydrofuran-2-ylmethyl]-5,6-dihydrospiro[benzo[1,2-b:5,4-b′]difuran-3,3′-indol]-2′(1′H)-one] | 1 to 100 | < 300 | > 50 |  |
| O=C1N(Cc2ncccc2C(F)(F)F)c2ccccc2[C@@]12COc1cc3c(cc12)OCCO3 [Example 7.15] |  | > 300 | < 50 | 100 to 1000 |
| O=C1N(CC2CCCCO2)c2ccccc2C12COc1cc3c(cc12)CCO3 (centres unmarked) [Example 4, 1′-(tetrahydro-2H-pyran-2-ylmethyl)-5,6-dihydrospiro[benzo[1,2-b:5,4-b′]difuran-3,3′-indol]-2′(1′H)-one] |  | > 300 | < 50 | 1 to 100 |
| O=C1N(C[C@H]2CCCO2)c2ccccc2[C@]12COc1cc3c(cc12)CCO3 [Example 11.66, (3S)-1′-[(2R)-tetrahydrofuran-2-ylmethyl]-5,6-dihydrospiro[benzo[1,2-b:5,4-b′]difuran-3,3′-indol]-2′(1′H)-one] | 1 to 100 | > 300 |  |  |
| CCCCCN1C(=O)[C@]2(COc3cc4c(cc32)OCCO4)c2ccccc21 [Example 7.4, (R)-1′-pentyl-2,3-dihydrospiro[furo[2,3-g][1,4]benzodioxine-8,3′-indol]-2′(1′H)-one] |  | > 300 | > 50 |  |
| CC(C)COc1ccc(-c2cccc3c2C2(COc4cc5c(cc42)CCO5)C(=O)N3C[C@H]2CCCO2)cc1 (stereo partly drawn) [Example 16.7, 4′-[4-(2-methylpropoxy)phenyl]-1′-[(2R)-tetrahydrofuran-2-ylmethyl]-5,6-dihydrospiro[benzo[1,2-b:5,4-b′]difuran-3,3′-indol]-2′(1′H)-one] | 100 to 1000 | < 300 | < 50 |  |
| O=C1N(Cc2ncccc2C(F)(F)F)c2ccccc2[C@]12COc1cc3c(cc12)OCCO3 [Example 1.12, (8S)-1′-{[3-(trifluoromethyl)pyridin-2-yl]methyl}-2,3-dihydrospiro[furo[2,3-g][1,4]benzodioxine-8,3′-indol]-2′(1′H)-one] |  | < 300 | < 50 | 1 to 100 |
| O=C1N(C[C@H]2CCCO2)c2ccccc2C12COc1cc3c(cc12)CCO3 (stereo partly drawn) [Example 4.3, 1′-[(2R)-tetrahydrofuran-2-ylmethyl]-5,6-dihydrospiro[benzo[1,2-b:5,4-b′]difuran-3,3′-indol]-2′(1′H)-one] |  | > 300 | < 50 | 1 to 100 |
| O=C1N(CC2CCOC2)c2ccccc2C12COc1cc3c(cc12)CCO3 (centres unmarked) [Example 4.16, 1′-(tetrahydrofuran-3-ylmethyl)-5,6-dihydrospiro[benzo[1,2-b:5,4-b′]difuran-3,3′-indol]-2′(1′H)-one] |  | > 300 | < 50 | 100 to 1000 |
| O=C1N(Cc2ncccc2C(F)(F)F)c2ccccc2C12OCOc1cc3c(cc12)OCCO3 (centres unmarked) [Example 2.54, 1′-{[3-(trifluoromethyl)pyridin-2-yl]methyl}-7,8-dihyrdospiro[1,4-dioxino[2,3-g][1,3]benzodioxine-4,3′-indol]-2′(1′H)-one] |  | > 300 | < 50 |  |
| CN1C(=O)C2(COc3cc4c(cc32)OCCO4)c2c(Oc3ccccc3)cccc21 (centres unmarked) [Example 16.80, 1′-methyl-4-phenoxy-2,3-dihydrospiro[furo[2,3-g][1,4]benzodioxine-8,3′-indol]-2′(1′H)-one] |  | < 300 | > 50 |  |
| COc1ccc2c(c1)OCC21C(=O)N(C[C@H]2CCCO2)c2ccccc21 (stereo partly drawn) [Example 4.68, 6-methoxy-1′-[(2R)-tetrahydrofuran-2-ylmethyl]spiro[1-benzofuran-3,3′-indol]-2′(1′H)-one] |  | > 300 | < 50 | 100 to 1000 |
| O=C1N(C[C@@H]2CCCO2)c2ccccc2[C@]12COc1cc3c(cc12)CCO3 [Example 11.69, (3S)-1′-[(2S)-tetrahydrofuran-2-ylmethyl]-5,6-dihydrospiro[benzo[1,2-b:5,4-b′]difuran-3,3′-indol]-2′(1′H)-one] | 1000 to 10000 | > 300 | < 50 |  |
| CN(C)c1ccc(-c2cccc3c2C2(COc4cc5c(cc42)CCO5)C(=O)N3C[C@H]2CCCO2)cn1 (stereo partly drawn) [Example 16, 4′-[6-(dimethylamino)pyridin-3-yl]-1′-[(2R)-tetrahydrofuran-2-ylmethyl]-5,6-dihydrospiro[benzo[1,2-b:5,4-b′]difuran-3,3′-indol]-2′(1′H)-one] | 100 to 1000 | > 300 | > 50 |  |
| CN1C(=O)COc2cc3c(cc21)OCC31C(=O)N(C[C@H]2CCCO2)c2ccccc21 (stereo partly drawn) [Example 9.23, 4-methyl-1′-(((R)-tetrahydrofuran-2-yl)methyl)-4,7-dihydrospiro[benzofuro[5,6-b][1,4]oxazine-8,3′-indoline]-2′,3(2H)-dione] |  | > 300 | < 50 | 1 to 100 |
| O=C1N(C[C@H]2CCCO2)c2cccc(-c3cncnc3)c2C12COc1cc3c(cc12)CCO3 (stereo partly drawn) [Example 16.10, 4′-pyrimidin-5-yl-1′-[(2R)-tetrahydrofuran-2-ylmethyl]-5,6-dihydrospiro[benzo[1,2-b:5,4-b′]difuran-3,3′-indol]-2′(1′H)-one] | 1000 to 10000 | > 300 | > 50 |  |
| COc1cc2c(cc1C)[C@@]1(CO2)C(=O)N(CN2CCN(C)CC2)c2ccccc21 [Example 11.64, (3S)-6-methoxy-5-methyl-1′-[(4-methylpiperazin-1-yl)methyl]spiro[1-benzofuran-3,3′-indol]-2′(1′H)-one hydrogen chloride] | 1 to 100 | > 300 | < 50 |  |
| O=C1N(CC2CCOCC2)c2ccccc2C12COc1cc3c(cc12)CCO3 (centres unmarked) [Example 4.6, 1′-(tetrahydro-2H-pyran-4-ylmethyl)-5,6-dihydrospiro[benzo[1,2-b:5,4-b′]difuran-3,3′-indol]-2′(1′H)-one] |  | > 300 | < 50 | 100 to 1000 |
| CN1C(=O)C2(COc3cc4c(cc32)OC(F)(F)O4)c2ccccc21 (centres unmarked) [Example 2.35] |  | > 300 | > 50 | 1000 to 10000 |
| O=C1N(C[C@H]2CCCO2)c2ccccc2[C@@]12COc1cc3c(cc12)CCO3 [Example 11.67, (3R)-1′-[(2R)-tetrahydrofuran-2-ylmethyl]-5,6-dihydrospiro[benzo[1,2-b:5,4-b′]difuran-3,3′-indol]-2′(1′H)-one] | 1000 to 10000 | > 300 | < 50 |  |
| O=C1N(Cc2ccc(C(F)(F)F)o2)c2c(Cl)cccc2C12COc1cc3c(cc12)CCO3 (centres unmarked) [Example 5.1, 7′-chloro-1′-((5-(trifluoromethyl)furan-2-yl)methyl)-5,6-dihydro-2H-spiro[benzofuro[6,5-b]furan-3,3′-indolin]-2′-one] |  | < 300 | > 50 | 100 to 1000 |
